Test system: renal sympathetic tone
Experiment: Renal pressure-flow measurements in anesthetized swine before and after renal sympatholysis with intrathecal ropivacaine
Assay type: in vivo, pigs
From the text: METHODS: Referring to FIG. 4, nine adult male New Zealand White rabbits were implanted with arterial pressure telemeters and bilateral renal flow probes. One kidney of each rabbit was surgically denervated. The rabbits were acclimated to a procedure room and, after a two-week recovery, measurements of arterial pressure and bilateral renal blood flow were obtained in the conscious state. Referring to FIG. 5, ten pigs were induced and then anesthesia was maintained via ketamine-midazolam IV infusion. T9/T10 intrathecal and arterial access were established. A Volcano ComboWire® was placed in the renal artery to measure intravascular pressure and flow velocity. Intrathecal ropivacaine was given to reduce renal sympathetic tone, and renal pressure-flow measurements were repeated.
Referring to FIG. 6, Arterial pressure and renal blood flow measurements were used to estimate resistive flow as a function of time, which was in turn used to derive the renal pressure-flow time-varying transfer function (TVTF). TVTF analysis focused on known sympathetic vaso-motor frequencies (0.2-0.75 Hz in rabbits, 0.03-0.1 Hz in pigs). Control of renal vascular resistance in different states of innervation was characterized by occurrence plots of admittance gain and phase shift of the TVTF. Admittance gain reflects the normalized magnitude of oscillations in renal blood flow; phase shift reflects the timing of renal blood flow oscillations relative to arterial pressure.
Table 2 (below) illustrates the mean hemodynamics of the pigs before (“Baseline”) and after renal sympatholysis with intrathecal ropivacaine (“Ropi”).

SMILES: CCCN1CCCC[C@H]1C(=O)Nc1c(C)cccc1C [Ropi, ropivacaine]
- Renal Blood Flow Velocity (mean hemodynamics of anesthetized pigs after renal sympatholysis with intrathecal ropivacaine (T9/T10), baseline 24 +/− 3): 28 ± 5 cm/s
- Arterial Pressure (mean hemodynamics of anesthetized pigs after renal sympatholysis with intrathecal ropivacaine (T9/T10), baseline 83 +/− 4): 72 +/− 7 mmHg
- Heart Rate (mean hemodynamics of anesthetized pigs after renal sympatholysis with intrathecal ropivacaine (T9/T10), baseline 85 +/− 8): 71 +/− 5 bpm
- Phase asynchrony of the renal pressure-flow time-varying transfer function at known sympathetic vasomotor frequencies (pigs, state PRIOR to intrathecal ropivacaine compared with after (0.03-0.1 Hz)): more phase asynchrony

Source: US11896423B2, “Time-varying quantification of capacitive and resistive arterial blood flow” (Board of Regents of the University of Nebraska, priority 2018, dated 2024)
